Assay results from patent publication US10189805B2, “Metabolism probes for therapy and diagnosis” (Vanderbilt University, priority 2014, dated 2019).

Target: ASCT2 (Homo sapiens (Human), UniProt Q15758)
Assay: 3H-glutamine uptake inhibition in live HEK-293 cells
Format: cell-based
Settings: for potency compared with GPNA (in words): 3H-glutamine uptake, HEK-293 cells; for IC50: inhibition of 3H-glutamine (500 nM) uptake, HEK293 cells, 15 min at 37° C., pH 6.0
Text: Initial compound libraries focused on 2, 3, and 4 substituted Nγ-glutamylanilides with aryl, alicyclic, and heterocyclic substitutions. To evaluate the biological activity, compounds were initially screened at a single concentration for their ability to inhibit ^3H-glutamine uptake in live HEK-293 cells, an established model suitable for evaluating ASCT2 activity. […] The present inventors prioritized the 2-substitution as a determinant of ASCT2 activity among this series.
The glutamine uptake assays in HEK293 cells were carried out in 96 well plates (CulturPlate-96, Perkin Elmer). Cells were plated at a density of 35,000 cells per well 24 hours prior to carrying out the assay. Each set of conditions is carried out in triplicate. The wells are washed three times with 100 uL of assay buffer at pH 6.0 (containing 137 mM NaCl, 5.1 mM KCl, 0.77 mM KH2PO4, 0.71 mM MgSO4.7H2O, 1.1 mM CaCl2, 10 mM D-glucose, and 10 mM HEPES). […] (500 nM) in the same buffer is added along with inhibitor and allowed to incubate for 15 min at 37° C. Following incubation, the H-glutamine/inhibitor is removed and the cells are washed three times with buffer. The cells are then lysed by the addition of 50 uL 1M NaOH. 150 uL of scintillation fluid (Microscint 40, Perkin Elmer) is added and the plates are counted on a scintillation counter (Topcount, Perkin Elmer).

ASCT2, sequence (Q15758 whole entry): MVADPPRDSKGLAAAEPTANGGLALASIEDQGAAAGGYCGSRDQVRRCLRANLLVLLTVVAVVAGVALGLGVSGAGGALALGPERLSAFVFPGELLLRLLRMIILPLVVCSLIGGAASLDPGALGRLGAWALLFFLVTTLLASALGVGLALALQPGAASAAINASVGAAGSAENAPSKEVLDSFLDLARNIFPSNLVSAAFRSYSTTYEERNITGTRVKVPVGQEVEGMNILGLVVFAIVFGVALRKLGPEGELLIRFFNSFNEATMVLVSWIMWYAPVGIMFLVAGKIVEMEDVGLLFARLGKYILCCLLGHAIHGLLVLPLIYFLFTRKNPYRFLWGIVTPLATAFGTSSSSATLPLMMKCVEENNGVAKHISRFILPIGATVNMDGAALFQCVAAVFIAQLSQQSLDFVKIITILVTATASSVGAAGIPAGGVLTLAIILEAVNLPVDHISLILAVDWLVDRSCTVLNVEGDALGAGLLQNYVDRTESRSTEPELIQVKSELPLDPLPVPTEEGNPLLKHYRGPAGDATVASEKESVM

SMILES | potency compared with GPNA (in words) | IC50 [µM]
CN1CCN(Cc2ccccc2CNC(=O)CC[C@H](N)C(=O)O)CC1 [Compound 20, N5-(2-((4-methylpiperazin-1-yl)methyl)benzyl)-L-glutamine] | significantly greater potency than GPNA | 697
N[C@@H](CCC(=O)Nc1ccccc1N1CCCCC1)C(=O)O [Compound 12] | – | 776
N[C@@H](CCC(=O)NCc1ccccc1CS(=O)(=O)N1CCOCC1)C(=O)O [Compound 19] | – | 677
N[C@@H](CCC(=O)Nc1ccccc1CCc1ccncc1)C(=O)O [Compound 16] | – | 832
N[C@@H](CCC(=O)Nc1ccccc1-c1nc2ccccc2s1)C(=O)O [Compound 4, N^5-(2-(benzo[d]thiazol-2-yl)phenyl)-L-glutamine] | significantly greater potency than GPNA | 436
N[C@@H](CCC(=O)Nc1ccc([N+](=O)[O-])cc1)C(=O)O [Compound 1, L-γ-glutamyl-p-nitroanilide, reference compound] | – | 954
